# Assay results reported in patent publication US12162890B2 (Novartis AG, priority 2015, dated 2024).
# Molecular target: HEK293 cells with stable expression of the GRIN1 gene and tetracycline-inducible expression of the GRIN2B gene (NMDA receptor, NR2B) (Homo sapiens, UniProt Q13224)
# Assay: Fluo-8 Ca2+ flux assay: reversal of Ro 25-6981-mediated suppression of the Ca2+ response to co-agonist (glutamate/glycine); further: test concentration or dose not given here
# Format: cell-based
# Conditions: reversal of the Ro 25-6981 suppression of the Ca2+ response to co-agonist (glutamate/glycine)
# HEK293 cells with stable expression of the GRIN1 gene and tetracycline-inducible expression of the GRIN2B gene (NMDA receptor, NR2B), sequence (Q13224 27-1484, other chains not shown): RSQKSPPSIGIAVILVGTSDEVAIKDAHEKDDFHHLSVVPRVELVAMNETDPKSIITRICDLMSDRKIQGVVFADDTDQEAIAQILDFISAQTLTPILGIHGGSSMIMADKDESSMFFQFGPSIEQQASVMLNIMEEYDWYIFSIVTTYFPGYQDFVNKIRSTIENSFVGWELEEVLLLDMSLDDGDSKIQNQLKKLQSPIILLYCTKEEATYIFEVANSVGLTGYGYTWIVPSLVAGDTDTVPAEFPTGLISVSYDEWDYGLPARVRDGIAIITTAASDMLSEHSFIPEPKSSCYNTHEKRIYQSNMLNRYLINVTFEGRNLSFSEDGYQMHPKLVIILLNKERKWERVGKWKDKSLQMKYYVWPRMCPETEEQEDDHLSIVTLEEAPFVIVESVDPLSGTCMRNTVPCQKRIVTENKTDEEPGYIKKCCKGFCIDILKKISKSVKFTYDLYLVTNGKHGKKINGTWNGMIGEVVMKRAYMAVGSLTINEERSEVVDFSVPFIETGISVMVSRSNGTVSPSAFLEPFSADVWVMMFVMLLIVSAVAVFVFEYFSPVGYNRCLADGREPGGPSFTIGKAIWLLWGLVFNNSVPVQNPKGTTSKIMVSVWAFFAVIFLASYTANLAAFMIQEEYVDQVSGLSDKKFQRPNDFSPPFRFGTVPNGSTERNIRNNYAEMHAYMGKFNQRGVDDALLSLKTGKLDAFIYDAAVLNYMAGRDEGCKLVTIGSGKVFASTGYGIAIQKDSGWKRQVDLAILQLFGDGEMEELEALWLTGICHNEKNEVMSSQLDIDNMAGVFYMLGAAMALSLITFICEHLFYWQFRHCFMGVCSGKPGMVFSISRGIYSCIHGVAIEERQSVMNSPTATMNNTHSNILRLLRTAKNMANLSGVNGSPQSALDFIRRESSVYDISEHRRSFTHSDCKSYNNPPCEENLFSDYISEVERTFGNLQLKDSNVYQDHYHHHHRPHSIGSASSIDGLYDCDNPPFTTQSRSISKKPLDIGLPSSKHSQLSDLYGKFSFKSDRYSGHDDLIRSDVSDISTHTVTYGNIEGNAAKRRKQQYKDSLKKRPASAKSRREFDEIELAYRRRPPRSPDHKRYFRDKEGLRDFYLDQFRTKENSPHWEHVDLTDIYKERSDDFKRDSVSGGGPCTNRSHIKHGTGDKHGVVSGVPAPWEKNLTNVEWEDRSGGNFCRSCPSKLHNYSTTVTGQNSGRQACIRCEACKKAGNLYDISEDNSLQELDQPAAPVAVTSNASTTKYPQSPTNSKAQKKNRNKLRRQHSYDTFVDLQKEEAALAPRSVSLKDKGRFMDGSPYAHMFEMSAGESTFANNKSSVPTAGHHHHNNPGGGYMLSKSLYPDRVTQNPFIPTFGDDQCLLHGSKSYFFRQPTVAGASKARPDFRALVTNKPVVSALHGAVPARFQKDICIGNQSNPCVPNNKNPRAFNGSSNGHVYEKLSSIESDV
row,Compound,Response Recovered (%)
1,"Cn1cc(-n2cc(-c3ccc(F)c(Cl)c3)c3c(=O)n(CC(=O)N4CCC(F)C4)ccc32)cn1 (centres unmarked) [Example 235, 3-(3-chloro-4-fluorophenyl)-5-(2-(3-fluoropyrrolidin-1-yl)-2-oxoethyl)-1-(1-methyl-1H-pyrazol-4-yl)-1H-pyrrolo[3,2-c]pyridin-4(5H)-one]",40
2,"Cn1cc(-n2cc(-c3ccc(F)c(C(F)(F)F)c3)c3c(=O)n(CC(=O)N4CC(C)(F)C4)ccc32)cn1 [Example 236, 3-(4-fluoro-3-(trifluoromethyl)phenyl)-5-(2-(3-fluoro-3-methylazetidin-1-yl)-2-oxoethyl)-1-(1-methyl-1H-pyrazol-4-yl)-1H-pyrrolo[3,2-c]pyridin-4(5H)-one]",140
3,"CCC1(F)CN(C(=O)Cn2ccc3c(c(-c4ccc(F)c(Cl)c4)cn3C3CC3)c2=O)C1 [Example 237, 3-(3-chloro-4-fluorophenyl)-1-cyclopropyl-5-(2-(3-ethyl-3-fluoroazetidin-1-yl)-2-oxoethyl)-1H-pyrrolo[3,2-c]pyridin-4(5H)-one]",79
4,"COCn1cc(-c2ccc(F)c(C(F)(F)F)c2)c2c(=O)n(CC(=O)N3CCC(F)C3)ccc21 (centres unmarked) [Example 238, 3-(4-fluoro-3-(trifluoromethyl)phenyl)-5-(2-(3-fluoropyrrolidin-1-yl)-2-oxoethyl)-1-(methoxymethyl)-1H-pyrrolo[3,2-c]pyridin-4(5H)-one]",65
5,"CCn1cc(-c2ccc(F)c(C(F)(F)F)c2)c2c(=O)n(CC(=O)N3CCC(F)C3)ccc21 (centres unmarked) [Example 239, 1-ethyl-3-(4-fluoro-3-(trifluoromethyl)phenyl)-5-(2-(3-fluoropyrrolidin-1-yl)-2-oxoethyl)-1H-pyrrolo[3,2-c]pyridin-4(5H)-one]",86
6,CN(C)CCn1cc(-c2ccc(F)c(C(F)(F)F)c2)c2c(=O)n(CC(=O)N3CCC(F)C3)ccc21 (centres unmarked) [Example 240],29
7,"CCOCn1cc(-c2ccc(F)c(C(F)(F)F)c2)c2c(=O)n(CC(=O)N3CCC(F)C3)ccc21 (centres unmarked) [Example 241, 1-(ethoxymethyl)-3-(4-fluoro-3-(trifluoromethyl)phenyl)-5-(2-(3-fluoropyrrolidin-1-yl)-2-oxoethyl)-1H-pyrrolo[3,2-c]pyridin-4(5H)-one]",61
8,"COCn1cc(-c2ccc(F)c(C(F)(F)F)c2)c2c(=O)n(CC(=O)N3CC(F)C(F)C3)ccc21 (centres unmarked) [Example 242, 5-(2-(3,4-difluoropyrrolidin-1-yl)-2-oxoethyl)-3-(4-fluoro-3-(trifluoromethyl)phenyl)-1-(methoxymethyl)-1H-pyrrolo[3,2-c]pyridin-4(5H)-one]",110
9,"O=C(Cn1ccc2c(c(-c3ccc(F)c(C(F)(F)F)c3)cn2-c2ncccn2)c1=O)N1CCC(F)C1 (centres unmarked) [Example 243, 3-(4-fluoro-3-(trifluoromethyl)phenyl)-5-(2-(3-fluoropyrrolidin-1-yl)-2-oxoethyl)-1-(pyrimidin-2-yl)-1H-pyrrolo[3,2-c]pyridin-4(5H)-one]",96
10,"O=C(Cn1ccc2c(c(-c3ccc(F)c(C(F)(F)F)c3)cn2-c2ccncn2)c1=O)N1CCC(F)C1 (centres unmarked) [Example 244, 3-(4-fluoro-3-(trifluoromethyl)phenyl)-5-(2-(3-fluoropyrrolidin-1-yl)-2-oxoethyl)-1-(pyrimidin-4-yl)-1H-pyrrolo[3,2-c]pyridin-4(5H)-one]",110
11,"CN(C)CCn1cc(-c2ccc(F)c(Cl)c2)c2c(=O)n(CC(=O)N3CCC(F)C3)ccc21 (centres unmarked) [Example 245, 3-(3-chloro-4-fluorophenyl)-1-(2-(dimethylamino)ethyl)-5-(2-(3-fluoropyrrolidin-1-yl)-2-oxoethyl)-1H-pyrrolo[3,2-c]pyridin-4(5H)-one]",14
12,"COCn1cc(-c2ccc(F)c(Cl)c2)c2c(=O)n(CC(=O)N3CCC(F)C3)ccc21 (centres unmarked) [Example 246, 3-(3-chloro-4-fluorophenyl)-5-(2-(3-fluoropyrrolidin-1-yl)-2-oxoethyl)-1-(methoxymethyl)-1H-pyrrolo[3,2-c]pyridin-4(5H)-one]",34
13,"Cn1cc(-c2ccc(F)c(Cl)c2)c2c(=O)n(CC(=O)N3CCC(F)C3)ccc21 (centres unmarked) [Example 247, 3-(3-chloro-4-fluorophenyl)-5-(2-(3-fluoropyrrolidin-1-yl)-2-oxoethyl)-1-methyl-1H-pyrrolo[3,2-c]pyridin-4(5H)-one]",51
14,O=C(Cn1ccc2c(c(-c3ccc(F)c(Cl)c3)cn2-c2ccncn2)c1=O)N1CCC(F)C1 (centres unmarked) [Example 248],59
15,"COCn1cc(-c2ccc(Cl)c(Cl)c2)c2c(=O)n(CC(=O)N3CCC(F)C3)ccc21 (centres unmarked) [Example 249, 3-(3,4-dichlorophenyl)-5-(2-(3-fluoropyrrolidin-1-yl)-2-oxoethyl)-1-(methoxymethyl)-1H-pyrrolo[3,2-c]pyridin-4(5H)-one]",70
16,"Cn1cc(-c2ccc(Cl)c(Cl)c2)c2c(=O)n(CC(=O)N3CCC(F)C3)ccc21 (centres unmarked) [Example 250, 3-(3,4-dichlorophenyl)-5-(2-(3-fluoropyrrolidin-1-yl)-2-oxoethyl)-1-methyl-1H-pyrrolo[3,2-c]pyridin-4(5H)-one]",62
17,Cn1cc(-c2ccc(F)c(C(F)(F)F)c2)c2c(=O)n(CC(=O)N3CCC(F)C3)ccc21 (centres unmarked) [Example 251],61
18,"O=C(Cn1ccc2c(c(-c3ccc(F)c(C(F)(F)F)c3)cn2CCF)c1=O)N1CCC(F)C1 (centres unmarked) [Example 252, 3-(4-fluoro-3-(trifluoromethyl)phenyl)-1-(2-fluoroethyl)-5-(2-(3-fluoropyrrolidin-1-yl)-2-oxoethyl)-1H-pyrrolo[3,2-c]pyridin-4(5H)-one]",96
19,"O=C(Cn1ccc2c(c(-c3ccc(F)c(Cl)c3)cn2CCF)c1=O)N1CCC(F)C1 (centres unmarked) [Example 253, 3-(3-chloro-4-fluorophenyl)-1-(2-fluoroethyl)-5-(2-(3-fluorpyrrolidin-1-yl)-2-oxoethyl)-1H-pyrrolo[3,2-c]pyridin-4(5H)-one]",66
20,"COCn1cc(-c2ccc(F)c(Cl)c2)c2c(=O)n(CC(=O)N3CC(C)(F)C3)ccc21 [Example 254, 3-(3-chloro-4-fluorophenyl)-5-(2-(3-fluoro-3-methylazetidin-1-yl)-2-oxoethyl)-1-(methoxymethyl)-1,5-dihydro-4H-pyrrolo[3,2-c]pyridin-4-one]",140
21,"NC(=O)Cn1ccc2[nH]cc(-c3ccc(F)c(Cl)c3)c2c1=O [Example 255, 2-(3-(3-chloro-4-fluorophenyl)-4-oxo-1H-pyrrolo[3,2-c]pyridin-5(4H)-yl)acetamide]",−1
22,"O=C(Cn1ccc2c(c(-c3ccc(F)c(C(F)(F)F)c3)cn2CCO)c1=O)N1CCC(F)C1 (centres unmarked) [Example 256, 3-(4-fluoro-3-(trifluoromethyl)phenyl)-5-(2-(3-fluoropyrrolidin-1-yl)-2-oxoethyl)-1-(2-hydroxyethyl)-1H-pyrrolo[3,2-c]pyridin-4(5H)-one]",54
23,"CC(C)(O)Cn1cc(-c2ccc(F)c(C(F)(F)F)c2)c2c(=O)n(CC(=O)N3CCC(F)C3)ccc21 (centres unmarked) [Example 257, 3-(4-fluoro-3-(trifluoromethyl)phenyl)-5-(2-(3-fluoropyrrolidin-1-yl)-2-oxoethyl)-1-(2-hydroxy-2-methylpropyl)-1H-pyrrolo[3,2-c]pyridin-4(5H)-one]",20
